Reference: PubChem BioAssay AID248 (DTP/NCI, 2004)
Values joined by “and” are separate entries in the source; they are usually repeats but may differ in a detail not shown here. Equal values may be shown once. Toxic doses and inconclusive results are not listed. No stated cut-off is given here; in the data, active means T/C of 150% or more; inactive means T/C below 125%.

Test system: L1210 leukemia ip in BDF1 mice, survival T/C
Assay: NCI In Vivo Anticancer Drug Screen. Data for tumor model L1210 Leukemia (intraperitoneal) in B6D2F1 (BDF1) mice
Conditions: endpoint: mean survival time, higher = longer survival
Outline: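 Antitumor effect is assessed in tumor-bearing animals. Survival in the compound arm is compared with a vehicle-dosed control arm and expressed as their quotient.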

[1] = dose: 5.0 mg/kg/injection, schedule: Q01DX001 (ip), vehicle: saline
[2] = dose: 10.0 mg/kg/injection, schedule: Q01DX001 (ip), vehicle: saline
[3] = dose: 20.0 mg/kg/injection, schedule: Q01DX001 (ip), vehicle: saline
[4] = dose: 40.0 mg/kg/injection, schedule: Q01DX001 (ip), vehicle: saline
[5] = dose: 80.0 mg/kg/injection, schedule: Q01DX001 (ip), vehicle: saline
[6] = dose: 100.0 mg/kg/injection, schedule: Q01DX001 (ip), vehicle: saline
[7] = dose: 50.0 mg/kg/injection, schedule: Q04DX003 (ip), vehicle: saline
[8] = dose: 100.0 mg/kg/injection, schedule: Q04DX003 (ip), vehicle: saline
[9] = dose: 200.0 mg/kg/injection, schedule: Q04DX003 (ip), vehicle: saline
[10] = dose: 400.0 mg/kg/injection, schedule: Q04DX003 (ip), vehicle: saline
[11] = dose: 100.0 mg/kg/injection, schedule: Q01DX009 (ip), vehicle: saline with Tween-80
[12] = dose: 100.0 mg/kg/injection, schedule: Q04DX002 (ip), vehicle: saline with Tween-80
[13] = dose: 200.0 mg/kg/injection, schedule: Q01DX009 (ip), vehicle: saline with Tween-80
[14] = dose: 200.0 mg/kg/injection, schedule: Q04DX002 (ip), vehicle: saline with Tween-80
[15] = dose: 400.0 mg/kg/injection, schedule: Q01DX009 (ip), vehicle: saline with Tween-80
[16] = dose: 100.0 mg/kg/injection, schedule: Q04DX003 (ip), vehicle: saline with Tween-80
[17] = dose: 200.0 mg/kg/injection, schedule: Q04DX003 (ip), vehicle: saline with Tween-80
[18] = dose: 400.0 mg/kg/injection, schedule: Q04DX003 (ip), vehicle: saline with Tween-80
[19] = dose: 50.0 mg/kg/injection, schedule: Q01DX001 (ip), vehicle: saline
[20] = dose: 200.0 mg/kg/injection, schedule: Q01DX001 (ip), vehicle: saline
[21] = dose: 400.0 mg/kg/injection, schedule: Q01DX001 (ip), vehicle: saline

Measured: T/C

CCN(CC)CC(O)COc1ccccc1C (stereo not drawn)
inactive: [1] 101 % of control | [2] 101 % of control | [3] 104 % of control | [4] 104 % of control | [5] 101 % of control | [6] 102 % of control

O=C(Nc1ccc([N+](=O)[O-])cc1Cl)SCCSC(=O)Nc1ccc([N+](=O)[O-])cc1Cl
inactive: dose: 100.0 mg/kg/injection, schedule: Q01DX009 (ip), vehicle: Klucel (hydroxypropylcellulose) (HPC) 114 % of control | dose: 200.0 mg/kg/injection, schedule: Q01DX009 (ip), vehicle: Klucel (hydroxypropylcellulose) (HPC) 94 % of control | dose: 400.0 mg/kg/injection, schedule: Q01DX009 (ip), vehicle: Klucel (hydroxypropylcellulose) (HPC) 105 % of control

O=CN=C(CS(=O)(=O)O)c1ccccc1
inactive: [7] 103 % of control | [8] 108 % of control | [9] 100 % of control | [10] 102 % of control

O=C(NC(=S)Nc1ccc([N+](=O)[O-])cc1Br)c1ccc(Cl)cc1Cl
inactive: [11] 89 % of control and 90 % of control | [12] 87 % of control and 90 % of control | [13] 93 % of control and 90 % of control | [14] 86 % of control and 92 % of control | [15] 93 % of control and 95 % of control | dose: 400.0 mg/kg/injection, schedule: Q04DX002 (ip), vehicle: saline with Tween-80 104 % of control and 92 % of control

CC1(C)N=C(N)N=C(N)N1c1cccc(OCc2cccc(N)c2)c1
inactive: [1] 98 % of control | [2] 101 % of control | [3] 96 % of control | [4] 93 % of control | [5] 113 % of control

O=C(O)C1=CC2C3C=CC(C(=O)O)(C3)C2C1 (stereo not drawn)
inactive: [11] 96 % of control | [16] 101 % of control | [13] 96 % of control | [17] 102 % of control | [15] 94 % of control | [18] 98 % of control

O=C(CCCC(=O)N/N=C/c1c(Cl)cccc1Cl)N/N=C\c1c(Cl)cccc1Cl
inactive: [19] 100 % of control | [6] 106 % of control | [20] 100 % of control | [21] 103 % of control

O=C(Nc1ccccc1)c1ccc(N(CO)CO)cc1
inactive: [6] 98 % of control | [8] 94 % of control | [20] 101 % of control | [9] 120 % of control | [21] 93 % of control | [10] 96 % of control

CC/C(=N/O)c1ccc(O)cc1O
inactive: [11] 106 % of control | [16] 101 % of control | [13] 106 % of control | [17] 101 % of control | [18] 101 % of control

CCCC1(CC)C(=O)NC(=S)N(C)C1=O (stereo not drawn)
inactive: dose: 75.0 mg/kg/injection, schedule: Q01DX001 (ip), vehicle: carboxymethylcellulose (CMC) 95 % of control | dose: 75.0 mg/kg/injection, schedule: Q01DX001 (ip), vehicle: other 94 % of control | dose: 150.0 mg/kg/injection, schedule: Q01DX001 (ip), vehicle: carboxymethylcellulose (CMC) 98 % of control | dose: 150.0 mg/kg/injection, schedule: Q01DX001 (ip), vehicle: other 111 % of control | dose: 300.0 mg/kg/injection, schedule: Q01DX001 (ip), vehicle: carboxymethylcellulose (CMC) 104 % of control

CCc1cccc(CC)c1N1C(=O)CC(Sc2ccccc2N)C1=O (stereo not drawn)
inactive: dose: 100.0 mg/kg/injection, schedule: Q01DX009 (ip), vehicle: gum acacia 93 % of control | dose: 100.0 mg/kg/injection, schedule: Q04DX003 (ip), vehicle: gum acacia 96 % of control | dose: 200.0 mg/kg/injection, schedule: Q01DX009 (ip), vehicle: gum acacia 91 % of control | dose: 200.0 mg/kg/injection, schedule: Q04DX003 (ip), vehicle: gum acacia 91 % of control | dose: 400.0 mg/kg/injection, schedule: Q01DX009 (ip), vehicle: gum acacia 98 % of control | dose: 400.0 mg/kg/injection, schedule: Q04DX003 (ip), vehicle: gum acacia 100 % of control

O=C1CCC2=C(CCCCCC2)N1c1ccccc1
inactive: [16] 110 % of control | [17] 110 % of control | [18] 98 % of control

C[As](C)[Se]CC1OC(O)C(O)C(O)C1O (stereo not drawn)
inactive: dose: 50.0 mg/kg/injection, schedule: Q01DX009 (ip), vehicle: saline with Tween-80 104 % of control

CC(C)(C)C1CC(C(F)(F)F)(C(F)(F)F)OS(=O)O1 (stereo not drawn)
inactive: dose: 12.5 mg/kg/injection, schedule: Q01DX009 (ip), vehicle: saline 96 % of control | dose: 12.5 mg/kg/injection, schedule: Q04DX003 (ip), vehicle: saline 102 % of control | dose: 25.0 mg/kg/injection, schedule: Q01DX009 (ip), vehicle: saline 94 % of control | dose: 25.0 mg/kg/injection, schedule: Q04DX003 (ip), vehicle: saline 91 % of control | dose: 50.0 mg/kg/injection, schedule: Q01DX009 (ip), vehicle: saline 100 % of control | [7] 94 % of control

O=C(OCCNC(=O)N1CCOCC1)OCCNC(=O)N1CCOCC1
inactive: [8] 100 % of control | [9] 100 % of control | [10] 106 % of control

CC1CC(NC(=O)N(CCCl)N=O)CC(C)(C)C1 (stereo not drawn)
inactive: dose: 8.0 mg/kg/injection, schedule: Q01DX001 (ip), vehicle: other 96 % of control | dose: 16.0 mg/kg/injection, schedule: Q01DX001 (ip), vehicle: other 94 % of control | dose: 31.0 mg/kg/injection, schedule: Q01DX001 (ip), vehicle: other 105 % of control | dose: 62.0 mg/kg/injection, schedule: Q01DX001 (ip), vehicle: other 120 % of control
active: dose: 250.0 mg/kg/injection, schedule: Q01DX001 (ip), vehicle: other 157 % of control | dose: 375.0 mg/kg/injection, schedule: Q01DX001 (ip), vehicle: other 292 % of control | dose: 500.0 mg/kg/injection, schedule: Q01DX001 (ip), vehicle: other 308 % of control | dose: 750.0 mg/kg/injection, schedule: Q01DX001 (ip), vehicle: other 333 % of control

CC(=O)NNC(N)=S
inactive: dose: 100.0 mg/kg/injection, schedule: Q04DX002 (ip), vehicle: Klucel (hydroxypropylcellulose) (HPC) 87 % of control | dose: 200.0 mg/kg/injection, schedule: Q04DX002 (ip), vehicle: Klucel (hydroxypropylcellulose) (HPC) 87 % of control | dose: 400.0 mg/kg/injection, schedule: Q04DX002 (ip), vehicle: Klucel (hydroxypropylcellulose) (HPC) 97 % of control

COc1ccccc1CN1CCCN(Cc2ccccc2OC)C1c1cc(Cl)cc(Cl)c1O
inactive: [19] 98 % of control | [6] 111 % of control | [20] 104 % of control | [21] 98 % of control

CC(=O)OCC1OC(N2C(=O)/C(=C/c3ccc(N(C)C)cc3)SC2=S)C(OC(C)=O)C(OC(C)=O)C1OC(C)=O (stereo not drawn)
inactive: dose: 25.0 mg/kg/injection, schedule: Q01DX005 (ip), vehicle: other 100 % of control | dose: 50.0 mg/kg/injection, schedule: Q01DX005 (ip), vehicle: other 98 % of control | dose: 100.0 mg/kg/injection, schedule: Q01DX005 (ip), vehicle: other 94 % of control | dose: 200.0 mg/kg/injection, schedule: Q01DX005 (ip), vehicle: other 95 % of control | dose: 400.0 mg/kg/injection, schedule: Q01DX005 (ip), vehicle: other 93 % of control

O=C1CN(CCN2CC(=O)NC2=S)C(=S)N1
inactive: [12] 95 % of control | [14] 100 % of control

CCOC(=O)/C=C(C)/C=C/C1=C(C)CCCC1(C)C
inactive: [16] 102 % of control | [17] 96 % of control | [18] 108 % of control

Nc1ncnc2c1c(Br)cn2C1OC(CO)C(O)C1O (stereo not drawn)
inactive: dose: 5.0 mg/kg/injection, schedule: Q01DX001 (ip), vehicle: carboxymethylcellulose (CMC) 106 % of control

O=C(CCN1CCOCC1)c1ccccc1
inactive: dose: 75.0 mg/kg/injection, schedule: Q01DX001 (ip), vehicle: saline 94 % of control | dose: 150.0 mg/kg/injection, schedule: Q01DX001 (ip), vehicle: saline 89 % of control | dose: 300.0 mg/kg/injection, schedule: Q01DX001 (ip), vehicle: saline 92 % of control
